Measurements as given in patent US20240050943A1, “MULTI-VOLUME MICROCHAMBER-BASED MICROFLUIDIC PLATFORM AND USE THEREOF” (CORNELL UNIVERSITY, priority 2020, published 2024).

Key:
[1] = test system: GFP-labeled E. coli 541-15; test: Antibiotic susceptibility test (AST) in the EL-MVM^2 microfluidic platform, resazurin fluorescence / GFP readout; format: cell-based; conditions: GFP-labeled E. coli 541-15, 4.5 hours of incubation; intermediate sub-GCP = 1.12-12.54 μg/mL
E. coli 541-15 = test: Gold standard broth microdilution (BMD) test, OD600; format: cell-based; conditions: E. coli 541-15, 1×10^6 CFU/mL

Q: For Gentamicin, which “Turning point of GFP-labeled bacterial growth from partially to totally inhibited” value [1] is on record?
A: The value was “intermediate concentration range”.

Q: What about the “MIC (broth microdilution, OD600 nm, 80% reduction)” value (E. coli 541-15) of the same substance?
A: Its value is 5.00 µg/mL.
